This is an account of results in patent publication US20210386705A1, “APPLICATION OF CHIGLITAZAR AND RELATED COMPOUNDS THEREOF” (SHENZHEN CHIPSCREEN BIOSCIENCES CO., LTD., priority 2018, published 2021).

Structures are written as SMILES. “And” between values parts separate entries of the source, which are not always exact repeats. Equal values may be shown once.

What all share (format): cell-based, human
Test [1] concerns monocytic cell line THP-1. The test is described as follows: MCP-1-induced chemotaxis of THP-1 cells (Transwell). Particulars: MCP-1 10 ng/mL, compound 3 μmol/L. The source says:
In an in vitro model, migration of the monocytic cell line THP-1 induced by a certain concentration of chemokines (such as monocyte chemotactic protein 1, MCP-1), and accordingly such in vivo process was mimicked. Transwell technology, according to the manufacturer's instructions from Corning Inc., is considered that Traswell is a kind of a polycarbonate membrane filter as well as a permeable holder. The polycarbonate membrane divides a culture chamber into upper and lower ones, where the components of the culture medium in the lower chamber can affect the growth, differentiation and movement of the cells in upper chamber. Finally, the cell migration ability can be reflected by staining and counting the cells in the lower chamber.
When cultured to the log phase stage, THP-1 cells were resuspended, adjusted the concentration, and seeded in 24-well plates, followed by being pretreated with the culture media containing the compound to be tested (sodium chiglitazar) or the reference compound GFT505, pioglitazone, or PPARγ single agonist rosiglitazone (all purchased from Selleck) for 24 hours. Transwells were used according to the manufacturer's instructions. The culture media containing chemokine MCP-1 were added to the lower chamber (i.e., the bottom of the 24-well plates), and the cell suspension was added to the upper chamber and cultured for 4 hours. Later, the cells cultured on the “ceiling” surface of the polycarbonate membrane were fixed and stained with crystal violet solution (FIG. 6), and then the number of cells in the lower chamber was counted (Table 3).

Test [2] deals with connective tissue growth factor (CTGF). The test is described as follows: TGF-β1-activated hepatic stellate cells, CTGF gene expression (qPCR). Particulars: TGF-β1 stimulation, 24 hours; FIG. 4. How it is done: Human primary hepatic stellate cells were seeded into 6-well plates with complete growth media (Stellate Cell Medium) for 24 hours, and then the culture media were replaced by fresh media (free of serum and growth factors) containing TGF-β1 and the compound to be tested (sodium chiglitazar) or the reference compound PPARγ/α dual agonist pioglitazone or PPARα/δ dual agonist GFT505 (both purchased from Selleck), and the cells were cultured for 24 hours. The total RNAs of the samples were extracted, and reverse transcription reaction was performed. Thereafter, a conventional PCR amplification kit (FastStart Universal SYBR@ Green Master (ROX), Roche) was used for further detection, where the PCR primers were designed with reference to the NCBI standard mRNA sequence of the target genes (Table 2). PCR reaction and detection were carried out on the ABI StepOnePlus real-time quantitative PCR instrument.
By calculating the relative amount of transcripts was calculate by “Delta-Delta CT method” (Livak et al. Methods 2001), and using ACTB as the housekeeping gene for normalization and the average data of untreated human hepatic stellate cells as a reference control, the relative change folds of gene expression were obtained (FIG. 4).
In general terms: Real-time PCR tracks product formation cycle by cycle.

Test [3] relates to α-smooth muscle actin (α-SMA). The test is described as follows: TGF-β1-activated hepatic stellate cells, α-SMA gene expression (qPCR). The note with it: TGF-β1 stimulation, 24 hours; FIG. 4. The procedure:
Human primary hepatic stellate cells were seeded into 6-well plates with complete growth media (Stellate Cell Medium) for 24 hours, and then the culture media were replaced by fresh media (free of serum and growth factors) containing TGF-β1 and the compound to be tested (sodium chiglitazar) or the reference compound PPARγ/α dual agonist pioglitazone or PPARα/δ dual agonist GFT505 (both purchased from Selleck), and the cells were cultured for 24 hours. The total RNAs of the samples were extracted, and reverse transcription reaction was performed. Thereafter, a conventional PCR amplification kit (FastStart Universal SYBR@ Green Master (ROX), Roche) was used for further detection, where the PCR primers were designed with reference to the NCBI standard mRNA sequence of the target genes (Table 2). PCR reaction and detection were carried out on the ABI StepOnePlus real-time quantitative PCR instrument. By calculating the relative amount of transcripts was calculate by “Delta-Delta CT method” (Livak et al. Methods 2001), and using ACTB as the housekeeping gene for normalization and the average data of untreated human hepatic stellate cells as a reference control, the relative change folds of gene expression were obtained (FIG. 4).

Where [4] appears, read: 24 hours pretreatment, 4 hours migration.

For `O=C(c1ccc(F)cc1)c1ccccc1N[C@@H](Cc1ccc(OCCn2c3ccccc3c3ccccc32)cc1)C(=O)[O-].[Na+]` [sodium chiglitazar], in test [1] (setting [4]), the “Cell concentration in lower chamber, Mean value” is recorded as 10012 cells/ml; the “Cell concentration in lower chamber, single replicates” value is 10630 cells/ml and 9760 cells/ml and 9646 cells/ml. Besides, the “Inhibition of migration activity of THP-1 induced by monocyte chemokine (in words)” value in test [1] (Table 3 and FIG. 6) is “significantly inhibited”. Moreover, in test [1] (solvent control + MCP-1 = 100), the Migration rate was 33.12%. Moreover, the “Effect on expression of connective tissue growth factor” value in test [2] was “significant and dose-dependent inhibitory effect”. For the same compound, the “Effect on expression of α-smooth muscle actin” value in test [3] was “significantly inhibited”.
